Laboratory results published in PubChem BioAssay (NCI).
Several values for one entry are separate records, joined by “and”; a condition that tells them apart may be missing. Equal entries are not always repeated.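 A five-concentration, 48-hour dose response in 96-well plates underlies each endpoint, interpolated linearly between surrounding concentrations. Here, GI50 denotes the concentration required for 50% inhibition of growth. The concentration for full growth arrest is given as TGI.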

How the values were obtained:
Assay in all cases: DTP human tumour cell line panel, 48 h
A498 renal = test system: A498 renal
ACHN renal = test system: ACHN renal
HS 578T breast = test system: HS 578T breast
MDA-N = test system: MDA-N
NCI-H522 lung = test system: NCI-H522 lung
NCI/ADR-RES ovarian = test system: NCI/ADR-RES ovarian
PC-3 prostate = test system: PC-3 prostate
SK-MEL-28 melanoma = test system: SK-MEL-28 melanoma
SK-MEL-5 melanoma = test system: SK-MEL-5 melanoma
SNB-75 CNS = test system: SNB-75 CNS
RXF 393 renal = test system: RXF 393 renal

Row | SMILES | TGI (A498 renal) [µM] | TGI (ACHN renal) [µM] | TGI (HS 578T breast) [µM] | TGI (MDA-N) [µM] | TGI (NCI-H522 lung) [µM] | TGI (NCI/ADR-RES ovarian) [µM] | TGI (PC-3 prostate) [µM] | TGI (SK-MEL-28 melanoma) [µM] | TGI (SK-MEL-5 melanoma) [µM] | TGI (SNB-75 CNS) [µM] | TGI (RXF 393 renal) [µM] | GI50 (SNB-75 CNS)
1 | CN(CC(=O)O)c1ncc2c(n1)-c1ccccc1SC2 | > 100 | > 100 | > 100 | > 100 | > 100 | > 100 | > 100 | > 100 | > 100 | > 100 | – | –
2 | CCCCCCCCCC1(N=[N+]=[N-])C(=O)c2ccccc2N(C)C1=O (stereo not drawn) | 76.8 | > 100 | 83.8 | 79.1 | – | > 100 | > 100 | 78.8 | 26.6 | > 100 | 55.3 | –
3 | C1C2CC3CC1CC(Nc1nc(NC45CC6CC(CC(C6)C4)C5)nc(NC45CC6CC(CC(C6)C4)C5)n1)(C2)C3 | > 100 | > 100 | > 100 | > 100 | – | > 100 | > 100 | > 93.2 | > 42.8 | > 79.2 | > 100 | –
4 | O=C(O)CC1NC(/C(=C/c2ccccc2)NC(=O)c2ccccc2)OC1=O (stereo not drawn) | > 100 | > 100 | > 100 | 86.4 | 33.5 | 56.4 | > 100 | 52.4 | 32.3 | 74 | > 100 | –
5 | CC1(C)CC(=O)c2[nH]c3ccccc3c2CC(=O)NCCc2cn1cn2 | > 100 | > 100 | > 100 | > 100 | > 100 | > 100 | > 100 | > 100 | > 100 | > 100 | > 100 | –
6 | O=C1NC(=O)C(c2c[nH]c3ccccc23)=C1c1cnc[nH]1 | > 100 | > 100 | > 100 | > 100 | > 100 | > 100 | > 100 | > 100 | 78.1 | > 100 | > 100 | –
7 | COCC1OC(Sc2ccccc2)C(O)C(OC)C1OC (stereo not drawn) | – | > 100 | > 100 | > 100 | > 100 | > 100 | > 100 | > 100 | > 100 | > 100 | > 100 | > 100 µM and 10.1 µM
8 | CC(C)(Cl)C(Br)CCC(C)(Cl)C(Br)CBr (stereo not drawn) | 49.6 | 52.6 | 82.9 | 81.9 | 35.8 | 68 | 71 | 79.7 | 34.5 | 93.9 | 65.9 | –
9 | O=C(O)CC(CC(=O)O)C(=O)O | > 100 | > 100 | > 100 | > 100 | > 100 | > 100 | > 100 | > 100 | > 100 | > 100 | > 100 | –
10 | CC(C)(C)OC(=O)N1CCc2[nH][nH]c(=O)c2C1 | > 100 | – | > 100 | > 100 | > 100 | > 100 | > 100 | > 100 | – | – | > 100 | –
11 | CC1(c2cccs2)CC(c2cccs2)=C(C#N)C(=C(C#N)C#N)N1 (stereo not drawn) | 35.8 | 32.1 | 69.5 | 31.1 | – | 49.5 | 29.8 | 50.2 | 28.8 | 33.2 | 38.7 | –
12 | Nc1ncnc2c1ccn2C/C=C\CO | > 100 | > 100 | > 100 | > 100 | > 100 | > 100 | > 100 | > 100 | > 100 | > 100 | > 100 | –
13 | CCCC[C@@H]1CCN2C[C@@H](O)[C@@H](O)[C@@H]2[C@H]1O | > 100 | > 100 | > 100 | > 100 | > 100 | > 100 | > 100 | > 100 | > 100 | > 100 | > 100 | –
14 | CN1CCN(C(=O)CCNC(=O)Cc2ccc(C(=O)c3ccccc3)cc2)CC1 | > 100 | > 100 | > 100 | 71.5 | > 100 | > 100 | > 100 | > 100 | > 100 | > 100 | > 100 | –
15 | CC(=O)c1ccc(NCc2cc(O)ccc2O)cc1 | > 100 | 33 | > 100 | 43.5 | > 100 | > 100 | 41.3 | > 100 | 57.2 | 28 | 27.9 | –
16 | COc1cc(OC)c(-c2ccc(OCc3ccccc3)c3c(OC)cc(C)cc23)c2c1C(C)=N[C@H](C)C2 | 3.93 | 4.01 | 4.41 | 4 | 3.6 | 3.92 | 3.9 | 4.38 | 4.1 | 4.04 | 4.94 | –
17 | O=C(O)c1ccc(N=C(C(=Nc2ccc(C(=O)O)cc2)c2ccccc2)c2ccccc2)cc1 | > 100 | > 100 | > 100 | > 100 | – | > 100 | > 100 | > 100 | – | > 100 | > 100 | –
18 | Oc1c(C2=NNC(c3ccc(Cl)cc3Cl)C2)ccc2ccccc12 (stereo not drawn) | > 100 | > 100 | > 100 | 55.5 | > 100 | 83.3 | > 100 | > 100 | > 100 | > 100 | > 100 | –
19 | OCCCCCCCCCCCOc1ccc(C2OCC3(CO2)COC(c2ccc(OCCCCCCCCCCCO)cc2)OC3)cc1 (stereo not drawn) | > 50 | > 50 | > 50 | > 50 | – | > 50 | > 50 | > 50 | > 50 | > 50 | – | –
